Reference: patent publication US20050070606A1, “Pharmaceutical agent for mitochondrial disorders” (Ajinomoto Co., Inc., priority 2002, published 2005)

Legend:
[1] = system: mRNAs of the proteins involved in the TCA cycle of liver mitochondria and the ATP generation in the electron transfer system; experiment: Expression of the genes for mitochondrial ATP generation-associated proteins (Taqman-PCR) in liver of rats after partial 70% hepatectomy; format: in vivo, rat; settings: male F344 rats after partial 70% hepatectomy; L-alanine 2 g/10 ml/kg orally 18 and 21 hours after hepatectomy; liver at 24 hours; compared with the non-administered group; FIG. 1
Description: Male F344/DvCrj (Fischer) rats (age 6 weeks and body weight of 120 g) were preliminarily fed with CRF-1 (Oriental Yeast) and water for 6 weeks. Subsequently, the rats were divided in two groups of equal body weight. According to the Higgins-Anderson method (see Higgins, G. M. and Anderson, R. M., 1931, Arch. Pathol. 12: 186-191), partial 70% hepatectomy (left lobe, intermediate lobe) was performed. 18 and 21 hours after the partial hepatectomy, L-alanine at 2 g/10 ml/kg body weight in aqueous 0.3% carboxymethyl cellulose solution was administered orally (group 1), while only the aqueous 0.3% carboxymethyl cellulose solution was administered to the control group (group 2). 24 hours after the partial hepatectomy, anatomy was performed. The rats were killed by exsanguination under anesthesia and then the liver was resected and weighed. Subsequently, the liver was frozen and stored for assaying mRNA expression by the Taqman-PCR method.
To homogenize the liver, 10 ml ISOGEN (Nippon Gene) was added per 1 g of rat liver. […]
The Taqman PCR reactions were performed in duplicate to calculate the cycle time (CT) exceeding the threshold. […] By the following formula, the relative expression level was determined: Relative expression level=2^(30-CT sample)
Further, the relative value of the expression level of each gene was determined when the relative expression level of β-actin was defined as 1000.

[2] = system: mitochondrial membrane potential; experiment: Assaying mitochondrial membrane potential (JC-1 fluorescence) in liver mitochondrial suspension; format: biochemical; settings: rat liver mitochondria 2 μg; various concentrations of L-alanine; excitation 490 nm, emission 590 nm; FIG. 2
Description: A male SD (IGS) rat of age 8 weeks was killed by exsanguination under ether anesthesia and then the liver was resected and washed twice with 1×Extraction Buffer A (10 mM HEPES (2-[4-(2-hydroxyethyl)-1-piperazinyl]ethanesulfonic acid, pH 7.5, 200 mM mannitol, 70 mM sucrose, 1 mM EGTA (ethylene glycol bis(β-aminoethyl ether)-N, N,N,N-tetraacetic acid). The liver was subsequently cut into a piece of about 100 mg and weighed, which was then cut into smaller pieces in a 5-ml tube.
A 10-fold volume of 1×Extraction Buffer A (containing 2 mg/ml albumin) was added to the tube and the liver was homogenized at a low speed on ice (15 seconds). The resulting homogenate was transferred into an Eppendorf tube for centrifugation at 600 g at 4° C. for 5 minutes. The supernatant was transferred to a new tube for centrifugation at 11,000 g and 4° C. for 10 minutes. After the supernatant was discarded, the precipitate was suspended in a 10-fold volume of 1×Extraction Buffer A. The procedure from centrifugation at 600 g and 4° C. for 5 minutes to centrifugation at 11,000 g and 4° C. for 10 minutes was repeated. […]
The resulting suspension was defined as the mitochondrial suspension for the following experiments. […] For assaying fluorescence intensity (excitation at 490 nm; emission at 590 nm), 2 μl of JC-1 (1 μg/ml) was added and incubated at ambient temperature for 7 minutes.

[3] = molecular target: T1, COX (cytochrome C oxidase) (Rattus norvegicus, UniProt P00406+P05503); experiment: Assaying COX (cytochrome C oxidase) activity in liver mitochondrial suspension; format: biochemical; settings: rat liver mitochondria 2.5 μg, reduced cytochrome c, FIG. 3
T1 construct: from tissue; host or cells: mitochondrial suspension (liver according to the earlier reading)
Description: As described in Example 2, a mitochondrial suspension was prepared and adjusted to 0.1 mg/ml. 25 μl (2.5 μg) of mitochondria was blended with 950 μl of an assay buffer (10 mM Tris-HCl, pH 7.0, 120 mM KCl), to which various concentrations of L-alanine were added. 50 μl of cytochrome c (0.22 mM) reduced with 10 mg/ml sodium hydroxysulfite was added, and the resulting mixture was inversed and mixed together to start reaction. Immediately, the absorbance (550 nm) was counted continuously for one minute with a spectrophotometer, to record the decrease of the absorbance.

T1 sequence (P00406 whole entry, other chains not shown): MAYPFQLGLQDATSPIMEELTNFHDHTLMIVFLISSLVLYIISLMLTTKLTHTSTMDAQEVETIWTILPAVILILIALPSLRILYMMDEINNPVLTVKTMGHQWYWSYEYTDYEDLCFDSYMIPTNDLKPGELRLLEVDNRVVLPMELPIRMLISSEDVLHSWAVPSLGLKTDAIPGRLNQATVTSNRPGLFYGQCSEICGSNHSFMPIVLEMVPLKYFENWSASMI

- concentration from which COX activity was increased ([3]; absorbance at 550 nm): ≥ 2.5 mM
SMILES: C[C@H](N)C(=O)O [L-alanine]
- mRNAs of the proteins involved in the TCA cycle of liver mitochondria and the ATP generation in the electron transfer system [1]: significantly increased
- fluorescence intensity of JC-1 (mitochondrial membrane potential) [2]: increased in an L-alanine concentration-dependent manner
- COX activity ([3]; decrease of absorbance at 550 nm for one minute, various concentrations of L-alanine): increased the COX activity in a concentration-dependent manner
